Results on three compounds are retold here after ChEMBL document CHEMBL3779848, “Effect of chlorine substituent on cytotoxic activities: Design and synthesis of systematically modified 2,4-diphenyl-5H-indeno[1,2-b]pyridines” (Bioorg Med Chem Lett, 2016).

Each structure is given as a SMILES string.

The nature of assay [1]: Cytotoxicity against human HCT15 cells after 3 days by CCK8 assay. The format is functional, cell-based. The following applies: HCT-15, 72 h.
The target of assay [2] is T1, DNA topoisomerase 1 (Homo sapiens) (UniProt P11387).
T1 sequence (whole entry): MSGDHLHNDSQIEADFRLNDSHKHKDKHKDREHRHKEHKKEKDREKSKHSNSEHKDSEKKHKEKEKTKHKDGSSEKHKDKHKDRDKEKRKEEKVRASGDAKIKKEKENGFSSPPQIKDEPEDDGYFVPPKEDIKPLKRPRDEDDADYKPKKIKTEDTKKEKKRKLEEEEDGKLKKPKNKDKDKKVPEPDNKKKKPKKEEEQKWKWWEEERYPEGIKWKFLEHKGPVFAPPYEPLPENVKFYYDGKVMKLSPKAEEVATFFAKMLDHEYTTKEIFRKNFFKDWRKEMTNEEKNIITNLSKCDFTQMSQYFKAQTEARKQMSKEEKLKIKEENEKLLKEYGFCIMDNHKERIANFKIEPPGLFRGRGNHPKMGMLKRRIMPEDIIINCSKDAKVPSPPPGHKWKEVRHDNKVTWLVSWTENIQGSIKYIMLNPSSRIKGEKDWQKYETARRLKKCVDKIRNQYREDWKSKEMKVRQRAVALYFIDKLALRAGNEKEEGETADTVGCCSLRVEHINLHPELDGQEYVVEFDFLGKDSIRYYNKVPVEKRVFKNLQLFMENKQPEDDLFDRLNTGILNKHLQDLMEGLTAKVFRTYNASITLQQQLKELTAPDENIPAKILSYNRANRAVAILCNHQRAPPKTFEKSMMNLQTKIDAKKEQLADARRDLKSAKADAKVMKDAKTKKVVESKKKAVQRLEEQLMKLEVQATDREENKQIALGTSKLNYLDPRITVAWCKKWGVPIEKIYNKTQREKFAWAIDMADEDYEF
The assay can be described thus: Inhibition of human recombinant DNA topoisomerase 1 at 100 uM assessed as relaxation of supercoiled DNA pBR322 after 30 mins by Agarose gel electrophoresis.

Assay [3] relates to HeLa. The assay can be described thus: Cytotoxicity against human HeLa cells after 3 days by CCK8 assay. The following applies: 72 h. The format is functional, cell-based. Background: Formazan colour is commonly taken as a measure of viable cells.
Assay [4] is described as follows: Potency index, ratio of IC50 for adriamycin to IC50 for test compound for cytotoxicity against human HCT15 cells. The format is functional, HCT-15.
The test system of assay [5] is HeLa. The assay can be described thus: Potency index, ratio of IC50 for adriamycin to IC50 for test compound for cytotoxicity against human HeLa cells. Type of assay: functional.
Assay [6] has as its system T47D. Briefly: Potency index, ratio of IC50 for adriamycin to IC50 for test compound for cytotoxicity against human T47D cells. Type of assay: functional.
Assay [7] addresses T1, DNA topoisomerase 1 (Homo sapiens). Briefly: Inhibition of human recombinant DNA topoisomerase 1 at 20 uM assessed as relaxation of supercoiled DNA pBR322 after 30 mins by Agarose gel electrophoresis.
Assay [8] addresses DNA topoisomerase 2-alpha (Homo sapiens) (UniProt P11388). The assay can be described thus: Inhibition of human recombinant DNA topoisomerase 2alpha at 100 uM assessed as relaxation of supercoiled DNA pBR322 after 30 mins by Agarose gel electrophoresis.
The test system of assay [9] is T47D. Briefly: Cytotoxicity against human T47D cells after 3 days by CCK8 assay. The format is functional, cell-based. The following applies: 72 h.

Chain of DNA topoisomerase 2-alpha (Homo sapiens) (P11388 whole entry): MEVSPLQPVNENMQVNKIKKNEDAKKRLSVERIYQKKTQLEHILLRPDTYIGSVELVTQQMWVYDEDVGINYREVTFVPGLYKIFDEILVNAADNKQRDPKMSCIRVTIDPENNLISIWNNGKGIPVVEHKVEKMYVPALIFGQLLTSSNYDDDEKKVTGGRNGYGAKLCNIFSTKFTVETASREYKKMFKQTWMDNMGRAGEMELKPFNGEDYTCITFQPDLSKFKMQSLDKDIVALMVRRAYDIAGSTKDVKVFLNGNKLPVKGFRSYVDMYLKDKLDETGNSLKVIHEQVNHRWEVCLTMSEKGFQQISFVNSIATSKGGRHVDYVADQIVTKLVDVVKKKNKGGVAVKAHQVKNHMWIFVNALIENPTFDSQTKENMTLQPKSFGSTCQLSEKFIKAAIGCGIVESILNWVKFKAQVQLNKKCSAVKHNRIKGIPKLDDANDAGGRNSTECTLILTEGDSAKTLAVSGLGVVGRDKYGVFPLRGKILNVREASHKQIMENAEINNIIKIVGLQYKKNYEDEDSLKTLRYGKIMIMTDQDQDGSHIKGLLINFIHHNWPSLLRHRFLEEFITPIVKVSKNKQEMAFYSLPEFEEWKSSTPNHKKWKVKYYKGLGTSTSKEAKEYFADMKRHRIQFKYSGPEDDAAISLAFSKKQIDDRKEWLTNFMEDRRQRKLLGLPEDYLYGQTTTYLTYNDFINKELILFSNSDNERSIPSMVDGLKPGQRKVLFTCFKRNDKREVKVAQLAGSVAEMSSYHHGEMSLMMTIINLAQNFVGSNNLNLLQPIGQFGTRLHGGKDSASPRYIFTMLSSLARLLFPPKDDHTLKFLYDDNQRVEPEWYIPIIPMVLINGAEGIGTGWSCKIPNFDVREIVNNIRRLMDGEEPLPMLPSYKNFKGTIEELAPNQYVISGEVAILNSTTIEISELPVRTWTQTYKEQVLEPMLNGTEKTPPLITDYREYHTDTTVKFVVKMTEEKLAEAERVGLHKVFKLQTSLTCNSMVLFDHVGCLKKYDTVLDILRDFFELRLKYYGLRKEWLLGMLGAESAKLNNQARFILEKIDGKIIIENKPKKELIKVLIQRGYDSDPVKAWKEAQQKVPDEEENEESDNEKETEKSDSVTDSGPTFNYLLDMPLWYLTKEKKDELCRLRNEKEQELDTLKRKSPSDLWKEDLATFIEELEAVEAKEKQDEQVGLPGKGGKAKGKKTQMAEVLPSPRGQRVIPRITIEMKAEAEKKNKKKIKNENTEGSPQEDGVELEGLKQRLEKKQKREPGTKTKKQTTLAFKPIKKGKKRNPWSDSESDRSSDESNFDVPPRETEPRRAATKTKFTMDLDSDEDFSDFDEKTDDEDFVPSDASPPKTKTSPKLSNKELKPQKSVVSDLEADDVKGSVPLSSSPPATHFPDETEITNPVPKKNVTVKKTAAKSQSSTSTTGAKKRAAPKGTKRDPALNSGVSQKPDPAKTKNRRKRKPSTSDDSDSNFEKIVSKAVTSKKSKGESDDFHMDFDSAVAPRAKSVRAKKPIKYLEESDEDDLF

The term IC50 denotes the concentration that gives 50% inhibition. The low end stands for inhibition by little substance, the high end for a need for much substance. A word on the inhibition: it is how much of the control response was suppressed. Regarding `Oc1ccc(-c2cc(-c3cccc(Cl)c3)c3c(n2)-c2ccccc2C3)cc1`, the figures for the IC50 in [1], in assay [3] and in assay [9] were 0.81 µM, 3.68 µM and 1.63 µM, respectively. Besides, the inhibition in [2] is 35.5%; in [7], 2.8%; in [8] it was 4.9%. Moreover, the “Ratio IC50” value in [4] was determined as 0.12; in [5], 0.22; in assay [6] it was 0.9.

As for `Oc1cccc(-c2cc(-c3cccc(Cl)c3)c3c(n2)-c2ccccc2C3)c1`, the IC50 in assay [1] was determined as 1.59 µM; in [3], 1.91 µM; in assay [9] it was 1.85 µM. Besides, the inhibition in [2] stood at 7.5%; in [8] it was 4.4%. For the same compound, the “Ratio IC50” value in [4] is 0.06; in assay [5] it was 0.43; in assay [6] it was 0.79.

With `Oc1cccc(-c2cc(-c3ccccc3Cl)nc3c2Cc2ccccc2-3)c1`, the values for the IC50 in [1], in [3] and in assay [9] were 0.4 µM, 2.01 µM and 0.31 µM, respectively. Further, the values for the inhibition in assay [2] and in assay [8] were 0% and 3.1%, respectively. Also, the “Ratio IC50” value is 0.25 in assay [4], 0.41 in assay [5] and 4.74 in assay [6].
